The text below walks through data of patent US20260049085A1, “CYCLIC COMPOUNDS AND METHODS OF USING SAME” (SCHRÖDINGER, INC., priority 2022, published 2026).

Where only a bound is given, the exact number is not on record here.

The assay addresses T1, full-length MALT1 protein His-MALT1(1-824) (Homo sapiens, UniProt Q9UDY8).
T1 construct: full-length MALT1 protein His-MALT1(1-824); His (N); made in house; host or cells: baculovirus-infected insect cells
T1 sequence (Q9UDY8 1-824): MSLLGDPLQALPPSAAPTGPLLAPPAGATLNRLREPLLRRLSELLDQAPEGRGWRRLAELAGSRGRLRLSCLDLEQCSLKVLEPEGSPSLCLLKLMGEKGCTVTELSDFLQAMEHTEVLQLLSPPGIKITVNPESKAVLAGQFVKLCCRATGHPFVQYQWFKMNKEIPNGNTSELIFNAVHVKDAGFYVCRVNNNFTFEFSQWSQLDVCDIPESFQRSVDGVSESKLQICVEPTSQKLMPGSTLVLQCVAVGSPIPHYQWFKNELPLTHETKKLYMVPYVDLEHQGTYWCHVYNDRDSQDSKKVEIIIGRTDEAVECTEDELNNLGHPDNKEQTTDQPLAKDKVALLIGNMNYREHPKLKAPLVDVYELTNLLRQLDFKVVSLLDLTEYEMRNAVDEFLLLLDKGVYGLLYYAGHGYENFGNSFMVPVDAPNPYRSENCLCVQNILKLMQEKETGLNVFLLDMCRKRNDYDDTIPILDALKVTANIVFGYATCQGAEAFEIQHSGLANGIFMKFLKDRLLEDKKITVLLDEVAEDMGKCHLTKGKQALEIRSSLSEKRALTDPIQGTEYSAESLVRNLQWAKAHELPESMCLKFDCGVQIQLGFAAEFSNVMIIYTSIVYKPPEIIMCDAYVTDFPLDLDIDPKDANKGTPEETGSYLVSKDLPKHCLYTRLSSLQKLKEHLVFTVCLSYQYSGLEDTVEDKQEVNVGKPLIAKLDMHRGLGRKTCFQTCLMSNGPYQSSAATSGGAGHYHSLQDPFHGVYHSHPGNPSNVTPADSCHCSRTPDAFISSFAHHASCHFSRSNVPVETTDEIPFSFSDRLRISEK
Kind of assay: MALT1 protease assay (Ac-LRSR-AMC tetrapeptide substrate, fluorescence). Conditions: 1 nM MALT1, 25 μM Ac-LRSR-AMC, 2 h pre-incubation, 8 hr incubation at RT. Format: biochemical. On the procedure: MALT1 protease activity was assessed in an in vitro assay using a tetrapeptide as substrate and full-length MALT1 protein His-MALT1(1-824) purified from baculovirus-infected insect cells.
The final assay buffer includes 1 nM of MALT1 full-length protein, 25 μM Ac-LRSR-AMC substrate, 50 mM Tris pH 7.5, 600 mM Sodium Citrate, 1 mM DTT, 1 mM EDTA, and 0.05% BSA in 384-well plate format using black microtiter square well plates (Optiplate 384-F, Perkin Elmer).
Test compounds were dissolved in 100% DMSO stock of 10 mM, with final DMSO concentration of 0.1%. Test compounds were pre-incubated with MALT1 protein for 2 h at room temperature. Substrate was added after the pre-incubation and fluorescence signal was measured using Envision at excitation 355 nm and emission 460 nm after 8 hr incubation at RT.
The fluorescence units were transformed to percentage of remaining activity by using the high control (HC, median of fluorescence signal from wells containing MALT1 protein, substrate, and DMSO) and low control (LC, median of fluorescence signal from wells with substrate only) with the formula below: […]
IC50 and Hill coefficients were obtained using Graph Pad Prism (Graph Pad software, Inc, USA) with non-linear regression analysis.

On to `Cc1cc(NC(=O)[C@H]2C[C@](C)(c3cnn(C)c3)c3c2cnc2cc(F)nn32)cnc1-n1nccn1` (single isomer, unassigned) [Example 56, trans-2-fluoro-8-methyl-8-(1-methyl-1H-pyrazol-4-yl)-N-(5-methyl-6-(2H-1,2,3-triazol-2-yl)pyridin-3-yl)-7,8-dihydro-6H-cyclopenta[e]pyrazolo[1,5-a]pyrimidine-6-carboxamide], for which the IC50 lay within 0.01 to 0.1 µM.

The compound `Cc1cc(NC(=O)[C@@H]2C[C@@](C)(c3cnn(C)c3)c3c2cnc2cc(F)nn32)cnc1-n1nccn1` (single isomer, unassigned) [Example 57, trans-2-fluoro-8-methyl-8-(1-methyl-1H-pyrazol-4-yl)-N-(5-methyl-6-(2H-1,2,3-triazol-2-yl)pyridin-3-yl)-7,8-dihydro-6H-cyclopenta[e]pyrazolo[1,5-a]pyrimidine-6-carboxamide] returned an IC50 of at least 1 µM.

`Cc1cc(NC(=O)[C@H]2C[C@@](C)(c3cnn(C)c3)c3c2cnc2cc(F)nn32)cnc1-n1nccn1` (single isomer, unassigned) [Example 58] showed a half-inhibitory concentration (IC50) of at least 1 µM.

Turning to `Cc1cc(NC(=O)[C@@H]2C[C@](C)(c3cnn(C)c3)c3c2cnc2cc(F)nn32)cnc1-n1nccn1` (single isomer, unassigned) [Example 59], the concentration for half-maximal inhibition (IC50) is at least 1 µM.

On to `Cc1cc(NC(=O)[C@H]2C[C@](C)(c3cnn(C)c3)c3c2cnc2cc(F)nn32)cnc1OC(F)F` (single isomer, unassigned) [Example 60], for which the concentration for half-maximal inhibition (IC50) was in the range of 0.01 to 0.1 µM.

Consider `Cc1cc(NC(=O)[C@@H]2C[C@@](C)(c3cnn(C)c3)c3c2cnc2cc(F)nn32)cnc1OC(F)F` (single isomer, unassigned) [Example 61], for which the half-maximal inhibitory concentration (IC50) was at least 1 µM.

Compound `Cc1cc(NC(=O)[C@H]2C[C@@](C)(c3cnn(C)c3)c3c2cnc2cc(F)nn32)cnc1OC(F)F` (single isomer, unassigned) [Example 62] gave a half-inhibitory concentration (IC50) of at least 1 µM.

`Cc1cc(NC(=O)[C@@H]2C[C@](C)(c3cnn(C)c3)c3c2cnc2cc(F)nn32)cnc1OC(F)F` (single isomer, unassigned) [Example 63]: the IC50 was at least 1 µM.

With `Cn1nccc1[C@@]1(C)C[C@H](C(=O)Nc2cnc(-n3nccn3)c(Cl)c2)c2cnc3cc(F)nn3c21` (single isomer, unassigned) [Example 64], the IC50 is 0.01 to 0.1 µM.

As for `Cn1nccc1[C@]1(C)C[C@@H](C(=O)Nc2cnc(-n3nccn3)c(Cl)c2)c2cnc3cc(F)nn3c21` (single isomer, unassigned) [Example 65], the half-maximal inhibitory concentration (IC50) is at least 1 µM.

The compound `Cn1nccc1[C@]1(C)C[C@H](C(=O)Nc2cnc(-n3nccn3)c(Cl)c2)c2cnc3cc(F)nn3c21` (single isomer, unassigned) [Example 66] gave an IC50 of 0.1 to 1 µM.

`Cn1nccc1[C@@]1(C)C[C@@H](C(=O)Nc2cnc(-n3nccn3)c(Cl)c2)c2cnc3cc(F)nn3c21` (single isomer, unassigned) [Example 67] displayed a 50% inhibitory concentration (IC50) of at least 1 µM.

`Cn1ccc([C@]2(C)C[C@@H](C(=O)Nc3cnc(OC(F)F)c(C#N)c3)c3cnc4cc(F)nn4c32)n1` (single isomer, unassigned) [Example 69] gave an IC50 of at least 1 µM.

The compound `Cn1ccc([C@]2(C)C[C@H](C(=O)Nc3cnc(OC(F)F)c(C#N)c3)c3cnc4cc(F)nn4c32)n1` (single isomer, unassigned) [Example 70] gave a half-inhibitory concentration (IC50) of 0.1 to 1 µM.

On to `Cn1ccc([C@@]2(C)C[C@@H](C(=O)Nc3cnc(OC(F)F)c(C#N)c3)c3cnc4cc(F)nn4c32)n1` (single isomer, unassigned) [Example 71], for which the concentration for half-maximal inhibition (IC50) was at least 1 µM.

`C[C@]1(c2cnn(C3CC3)c2)C[C@H](C(=O)Nc2cnc(OC(F)F)c(C#N)c2)c2cnc3cc(F)nn3c21` (single isomer, unassigned) [Example 72] yielded an IC50 below 0.01 µM.

The compound `C[C@@]1(c2cnn(C3CC3)c2)C[C@@H](C(=O)Nc2cnc(OC(F)F)c(C#N)c2)c2cnc3cc(F)nn3c21` (single isomer, unassigned) [Example 73] returned a concentration for half-maximal inhibition (IC50) of at least 1 µM.

`C[C@@]1(c2cnn(C3CC3)c2)C[C@H](C(=O)Nc2cnc(OC(F)F)c(C#N)c2)c2cnc3cc(F)nn3c21` (single isomer, unassigned) [Example 74] came in with a half-inhibitory concentration (IC50) of 0.01 to 0.1 µM.

Consider `C[C@]1(c2cnn(C3CC3)c2)C[C@@H](C(=O)Nc2cnc(OC(F)F)c(C#N)c2)c2cnc3cc(F)nn3c21` (single isomer, unassigned) [Example 75], for which the IC50 is 0.1 to 1 µM.

As to `Cn1ccc([C@@]2(C)C[C@H](C(=O)Nc3cnc(-n4nccn4)c(Cl)c3)c3cnc4cc(Cl)nn4c32)n1` (single isomer, unassigned) [Example 76], the concentration for half-maximal inhibition (IC50) is below 0.01 µM.

For `Cn1ccc([C@]2(C)C[C@@H](C(=O)Nc3cnc(-n4nccn4)c(Cl)c3)c3cnc4cc(Cl)nn4c32)n1` (single isomer, unassigned) [Example 77], the IC50 is at least 1 µM.

Take `Cn1ccc([C@]2(C)C[C@H](C(=O)Nc3cnc(-n4nccn4)c(Cl)c3)c3cnc4cc(Cl)nn4c32)n1` (single isomer, unassigned) [Example 78]: the IC50 was 0.1 to 1 µM.

`Cn1ccc([C@@]2(C)C[C@@H](C(=O)Nc3cnc(-n4nccn4)c(Cl)c3)c3cnc4cc(Cl)nn4c32)n1` (single isomer, unassigned) [Example 79] yielded an IC50 of 0.1 to 1 µM.

On to `C[C@]1(c2cnn(C(F)F)c2)C[C@H](C(=O)Nc2cnc(-n3nccn3)c(C(F)(F)F)c2)c2cnc3cc(F)nn3c21` (single isomer, unassigned) [Example 80], for which the IC50 was below 0.01 µM.

`C[C@@]1(c2cnn(C(F)F)c2)C[C@@H](C(=O)Nc2cnc(-n3nccn3)c(C(F)(F)F)c2)c2cnc3cc(F)nn3c21` (single isomer, unassigned) [Example 81] displayed a 50% inhibitory concentration (IC50) of at least 1 µM.

For `C[C@@]1(c2cnn(C(F)F)c2)C[C@H](C(=O)Nc2cnc(-n3nccn3)c(C(F)(F)F)c2)c2cnc3cc(F)nn3c21` (single isomer, unassigned) [Example 82], the 50% inhibitory concentration (IC50) fell in the range of 0.01 to 0.1 µM.

`C[C@]1(c2cnn(C(F)F)c2)CC(C(=O)Nc2cnc(-n3nccn3)c(C(F)(F)F)c2)c2cnc3cc(F)nn3c21` (single isomer, unassigned) [Example 83] came in with a 50% inhibitory concentration (IC50) of 0.1 to 1 µM.

Consider `C[C@]1(c2cnn(CC(F)(F)F)c2)C[C@H](C(=O)Nc2cnc(-n3nccn3)c(Cl)c2)c2cnc3cc(F)nn3c21` (single isomer, unassigned) [Example 84], for which the IC50 was below 0.01 µM.

In the case of `C[C@@]1(c2cnn(CC(F)(F)F)c2)C[C@@H](C(=O)Nc2cnc(-n3nccn3)c(Cl)c2)c2cnc3cc(F)nn3c21` (single isomer, unassigned) [Example 85], the 50% inhibitory concentration (IC50) is at least 1 µM.

On to `C[C@@]1(c2cnn(CC(F)(F)F)c2)C[C@H](C(=O)Nc2cnc(-n3nccn3)c(Cl)c2)c2cnc3cc(F)nn3c21` (single isomer, unassigned) [Example 86], for which the IC50 lay within 0.01 to 0.1 µM.

As for `C[C@]1(c2cnn(CC(F)(F)F)c2)C[C@@H](C(=O)Nc2cnc(-n3nccn3)c(Cl)c2)c2cnc3cc(F)nn3c21` (single isomer, unassigned) [Example 87], the IC50 lay within 0.1 to 1 µM.

The compound `C[C@@]1(c2ccn(C(F)F)n2)C[C@@H](C(=O)Nc2cnc(-n3nccn3)c(Cl)c2)c2cnc3cc(F)nn3c21` (single isomer, unassigned) [Example 89] gave an IC50 of at least 1 µM.

Compound `C[C@@]1(c2ccn(C(F)F)n2)C[C@H](C(=O)Nc2cnc(-n3nccn3)c(Cl)c2)c2cnc3cc(F)nn3c21` (single isomer, unassigned) [Example 90] had an IC50 of 0.01 to 0.1 µM.

`C[C@]1(c2ccn(C(F)F)n2)C[C@@H](C(=O)Nc2cnc(-n3nccn3)c(Cl)c2)c2cnc3cc(F)nn3c21` (single isomer, unassigned) [Example 91] came in with a 50% inhibitory concentration (IC50) of 0.1 to 1 µM.

`C[C@@]1(c2cnn(C(F)F)c2)C[C@@H](C(=O)Nc2cnc(OC(F)F)c(C#N)c2)c2cnc3cc(F)nn3c21` (single isomer, unassigned) [Example 93] showed an IC50 of at least 1 µM.
